# According to patent US7968537B2, “Pyrimidine compound and pests controlling composition containing the same” (Sumitomo Chemical Company, Limited, priority 2003, dated 2011):
# System: cotton aphids (Aphis gossypii)
# Assay: Test Example 1: spray test on cotton aphids on cucumber plants
# Assay type: in vivo
# Conditions: 500 ppm active ingredient, sprayed 20 ml/cup on cucumber with about 20 cotton aphids; 6th day after the application
# Experimental: A formulation of a test compound obtained in Formulation Example 5 was diluted with water so that the active ingredient concentration came to 500 ppm to prepare a test spray liquid. The seeds of cucumber were planted in polyethylene cups and grown until their first foliage leaves developed, on which about 20 cotton aphids (Aphis gossypii) were made parasitic. After one day, the test spray liquid was sprayed at the rate of 20 ml/cup onto the cucumber plants. On the 6th day after the application, the number of cotton aphids was examined and the control value was determined by the following formula: Control value (%)={1−(Cb×Tai)/(Cai×Tb)}×100 wherein the variables in the formula have the following meanings: Cb: the number of insects before the treatment in the non-treated area; Cai: the number of insects at the time of observation in the non-treated area; Tb: the number of insects before the treatment in the treated area; and Tai: the number of insects at the time of observation in the treated area.
row,Compound,control value [%]
1,COc1cc(N2CCCCC2)ncn1 [compound of the formula (A)],≤ 29

# System: Western flower thrips (Frankliniella occidentalis)
# Assay: Test Example 2: Western flower thrips larvae on treated cucumber leaf
# Assay type: in vivo
# Conditions: 500 ppm, 20 ml/cup on cucumber; thirty larvae set free on cut first true leaf; after seven days
# Experimental: A formulation of each test compound obtained according to Formulation Example 5 was diluted with water so that the active ingredient concentration came to 500 ppm to prepare a test spray liquid. The seeds of cucumber were planted in a polyethylene cup, and grown until their first foliage leaves developed, and then a test spray liquid was applied at a ratio of 20 ml/cup to the plant. After the liquid sprayed to the cucumber were dried, the first true leaf was cut off and placed on a filter paper (70 mm in diameter) impregnated with water in a polyethylene cup (110 mm in diameter). Thirty larvae of Western flower thrips (Frankliniella occidentalis) were set free on the first true leaf, which was covered with a polyethylene cup. After seven days, the number of surviving pests was examined.
row,Compound,number of surviving pests
1,"CC#CCOc1cc(N2C[C@@H](C)C[C@H](C)C2)ncn1 (relative stereo) [Compound (44), 4-(2-butynyloxy)-6-(trans-3,5-dimethylpiperidino)pyrimidine]",0
2,"CC#CCOc1ncnc(N2CC(C)CC(C)C2)c1F (stereo not shown) [(51), 4-(2-butynyloxy)-5-fluoro-6-(3,5-dimethylpiperidino)pyrimidine]",0
3,"CC#CCOc1ncnc(N2CC(C)CC(C)C2)c1F (stereo not shown) [Compound (4), 4-(2-butynyloxy)-5-fluoro-6-(3,5-dimethylpiperidino)pyrimidine]",0
4,"CC#CCOc1cc(N2C[C@H](C)C[C@H](C)C2)ncn1 [Compound (23), 4-(2-butynyloxy)-6-(cis-3,5-dimethylpiperidino)pyrimidine]",0
5,"CC#CCOc1cc(N2CCCC(C(F)(F)F)C2)ncn1 (stereo not shown) [Compound (24), 4-(2-butynyloxy)-6-(3-trifluoromethylpiperidino)pyrimidine]",0
6,"CC#CCOc1ncnc(N2CCCC(C)C2)c1F (stereo not shown) [Compound (26), 4-(2-butynyloxy)-5-fluoro-6-(3-methylpiperidino)pyrimidine]",0
7,"CC#CCOc1ncnc(N2C[C@H](C)C[C@H](C)C2)c1F [Compound (29), 4-(2-butynyloxy)-5-fluoro-6-(cis-3,5-dimethylpiperidino)pyrimidine]",0
8,"CC#CCOc1ncnc(N2CCCC(C)(C)C2)c1F [Compound (32), 4-(2-butynyloxy)-6-(3,3-dimethylpiperidino)-5-fluoropyrimidine]",0
9,"CC#CCOc1ncnc(N2CCCCC2CC)c1F (stereo not shown) [Compound (33), 4-(2-butynyloxy)-6-(2-ethylpiperidino)-5-fluoropyrimidine]",0
10,"CC#CCOc1ncnc(N2CCCCCCC2)c1F [Compound (46), 1-(6-(2-butynyloxy)-5-fluoropyrimidin-4-yl)octahydro-1H-azocine]",0
11,"CC#CCOc1nc(F)nc(N2CC(C)CC(C)C2)c1Cl (stereo not shown) [Compound (52), 5-chloro-4-(2-butynyloxy)-2-fluoro-6-(3,5-dimethylpiperidino)pyrimidine]",0
12,"CC#CCOc1ncnc(N2CC=CCC2)c1F [Compound (53), 1-(6-(2-butynyloxy)-5-fluoropyrimidin-4-yl)-1,2,3,6-tetrahydropyridine]",0
